Test results: patent US20250339443A1, “METHOD FOR TREATING OR PREVENTING CALCIUM RELEASE-ACTIVATED CALCIUM CHANNEL OR DISCOIDIN DOMAIN RECEPTOR 2 RELATED DISORDERS OR CONDITIONS” (LumiSTAR Biotechnology, Inc., priority 2023, published 2025)

Biological target: CRAC channel (Homo sapiens, UniProt Q96D31)
Test: SOCE in macrophages
Format: cell-based
Parameters: endogenous in cells; host or cells: HEK293T
Settings: 10 μM
Experimental: The effects of BTP2, WRG-28, Av, and CM-4620 on SOCE were evaluated in T cells (FIG. 4A) and macrophages (FIG. 4E). Cells were cultured on glass-bottom 96-well plates and pretreated with various compounds (10 μM) while being loaded with Fura 2-AM. Subsequently, the cytosolic calcium signal waves were recorded, and the second peak of each wave and rate of entry were assessed. Each bar represents the mean value derived from, 43 to 111 cells for T cells (FIG. 4A), and 52 to 91 cells for macrophages (FIG. 4E). Cytokine induction in T cells and macrophages was conducted as described in the methods section. The levels of cytokines, including IL-2, TNF-α, and IL-6 in the culture medium were assessed using ELISA kits for T cells (FIG. 4B, FIG. 4C, and FIG. 4D) and macrophages (FIG. 4F, FIG. 4G, and FIG. 4H), respectively. Each bar represents the mean±SEM. In all the graphs, *, **, and *** denote p-values of <0.05, 0.01, and 0.001, respectively. […]
Cells cultured on a glass-bottom 96 well plate for 48 hours were treated with different compounds (10 μM) and Fura 2-AM (1 μM) simultaneously in a solution containing 145 mM NaCl, 2.8 mM KCl, 2 mM CaCl2, 2 mM MgCl2, 10 mM D-glucose, 10 mM HEPES, pH 7.4 for 40 minutes in the dark. […] All the images were analyzed by using IGOR Pro software. […]

Sequence of CRAC channel (Q96D31 whole entry): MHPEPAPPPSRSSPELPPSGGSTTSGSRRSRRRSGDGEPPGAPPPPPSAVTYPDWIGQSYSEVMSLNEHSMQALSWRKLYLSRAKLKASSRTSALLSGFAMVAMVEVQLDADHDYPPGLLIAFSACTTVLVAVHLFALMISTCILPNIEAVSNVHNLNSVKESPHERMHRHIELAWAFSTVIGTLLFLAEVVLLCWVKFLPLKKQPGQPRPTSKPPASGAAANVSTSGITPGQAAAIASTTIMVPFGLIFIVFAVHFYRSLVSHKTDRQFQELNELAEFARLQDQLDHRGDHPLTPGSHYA

With `CCNS(=O)(=O)c1ccc(COc2ccc3nc4ccc(=O)cc-4oc3c2)cc1` [WRG-28] the SOCE in macrophages was “higher efficacy compared to Av”.
